Experimental data as given in US10980910B2, “Apparatus and methods for ozone generation and degradation” (Gene Therapy Systems, Inc., priority 2013, dated 2021).
Where two headings read alike, the source gives them in different places.

Columns and labels:
[1] = tested on: E. coli K-12 cells (strain DH5); assay: Sterilization efficacy on LB agar plates loaded with E. coli, ozone generation and degradation cycle in cell culture chamber; assay type: cell-based; settings: test #2 dish; approx. 1.5×10^8 cells plated; ozone 120 minutes plus 15 minutes degradation; peak approx. 140-150 ppm ozone; plates incubated at 37° C. overnight
Protocol: (§1) In tests #2 and #3, represented by lines 520 and 530, respectively, both the ozone generator and an ozone degrader were present in the cell culture chamber. The ozone degrader was formed of three activated carbon filters. With the ozone degrader present, the ozone generator was unable to achieve the peak ozone concentration seen in test #1. In tests #2 and #3, the ozone generator was run for 120 minutes and the concentration of ozone noticeably plateaued. The air within the cell culture chamber reached a peak ozone concentration of approximately 140-150 ppm ozone. After the ozone generator was turned off, the ozone began to break down at an accelerated rate with the activated carbon filters present. In both tests #2 and #3, the ozone levels reached a level of 0.01 ppm ozone within 15 minutes.
While the peak ozone concentrations reached in tests #2 and #3 were noticeably lower than the peak ozone concentration of test #1, the ozone levels in tests #2 and #3 were at least sufficient to achieve sterilization. In each of tests #2 and #3, sterilization efficacy was measured with the assistance of LB agar plates loaded with E. coli bacteria. […] The quantity of E. coli present was then analyzed and a photograph of each plate was taken. […] In the test dish 550, a 100% E. coli kill rate was observed; no E. coli was detected.

[2] = cited from earlier work
[3] = tested on: humans; settings: OSHA limit, per workday; cited from earlier work
[4] = tested on: bacteriophage T1; assay: Effect of ozone on bacteriophage T1 spotted on LB agar plates; assay type: cell-based; settings: spots of 10^9 to 10^6 pfu/mL; ozone 4 hours, peak less than 150 ppm; silver-coated mesh generator; DH5 E. coli overlay, 72 hours at room temperature
Protocol: In Experiment 2, the effect of ozone on bacteriophage T1 was studied. In the experiment, 2.5 μL of purified bacteriophage T1 was spotted in four quadrants of two LB agar plates—a test plate 610 and a control plate 620, shown in FIG. 6. The bacteriophage concentrations on each of the two plates were (clockwise from the spot in the upper right quadrant): 10^9 pfu/mL, 10^8 pfu/mL, 10^7 pfu/mL, and 10^6 pfu/mL.
The test plate 610 was placed in an incubator chamber containing both an ozone generator and an ozone degrader. The ozone generator included two ceramic plates surrounded substantially by a silver-coated metal mesh. The ozone generator was activated and the test plate 610 was treated with ozone for 4 hours. The ozone generator was then turned off, and the ozone degrader, formed of activated carbon filters, accelerated the conversion of ozone to oxygen. The peak ozone concentration level generated within the incubator chamber was less than 150 ppm ozone.
The control plate 620 was placed in a different incubator chamber and left untreated. After the ozone generation and degradation cycle completed in the incubator chamber containing the test plate 610, 1 mL of stationary DH5 E. coli bacteria and top agar were added to each plate and incubated at room temperature for 72 hours. The photograph 600 in FIG. 6 was taken immediately following this 72-hour period.

[5] = Ozone breakdown in enclosed cell culture chamber, monitored with calibrated ozone analyzer; assay type: physicochemical
Protocol: In Experiment 1, an 1800 mg/hour ozone generator was placed in a 5.5 cubic feet cell culture. The ozone level within the chamber was monitored using a calibrated ozone analyzer. Ozone measurements were captured every 10 seconds. The experimental results, as represented by ozone level over time, are provided in the line graph 500 of FIG. 5A. In test #1, represented by line 510, the ozone generator was run for 80 minutes and achieved a peak ozone concentration within the cell culture chamber of approximately 325 ppm. After the ozone generator was turned off, the ozone was left to break down naturally within the enclosed cell culture chamber. It took approximately 28 hours for the ozone to breakdown to 0.01 ppm ozone.
as §1, with “After the ozone generator was turned off, the ozone began to break down at an accelerated rate with the activated carbon filters present. In both tests #2 and #3, the ozone levels reached a level of 0.01 ppm ozone within 15 minutes.” left out

## O=[O+][O-] [ozone]
[1]
  E. coli kill rate: 100%
[2]; in the air
  half-life: 36 to 72 h
[2]; in water
  half-life: 0.13 to 0.5 h
[3]
  acceptable ozone exposure in the workplace: under 0.1 ppm
[4]
  survival of the T1-phage: negligible survival
[5]; test #1, natural breakdown, no degrader, from peak approx. 325 ppm, 5.5 cubic feet chamber
  time for the ozone to breakdown to 0.01 ppm ozone: approximately 28 hours
[5]; tests #2 and #3, three activated carbon filters as ozone degrader, from peak approx. 140-150 ppm
  time for ozone levels to reach 0.01 ppm ozone: ≤ 15 min
